In one series the test system is CaCo2 cells. It counts as in vitro ADME. The note with it: 200 μg/ml cordycepin apical, pure solution. On the procedure:
Methods: Transepithelial wells with a 1 μm pore size and 0.3 cm^2 surface area were preincubated with DMEM-F12 media with 10% FBS and 10 μg/ml penicillin/streptomycin at 37° C. in 5% CO2 for one hour. CaCo2 cells in the same media were seeded at a density of 50,000 cells. The cells were maintained under these conditions throughout the experiment. Media was changed every 2 to 3 days, and TEER values were monitored from day 10 onward. At day 18, cells with TEER values exceeding 200 ohm/cm^2 were incubated in PAB buffer for 20 minutes: 1 ml in basolateral and 0.5 ml in apical side. Samples of 200 μg/ml cordycepin, and 200 μg/ml cordycepin in a standardized cordyceps extract were prepared in PAB buffer, which was exchanged for the apical buffer. Fifty microlitre samples of both apical and basolateral compartments were acquired initially and at 1 hour intervals. The samples were immediately added to 450 μl of methanol and quantified on an Agilent 4910 LC-mass spectrometer. Cordycepin was measured by direct injection in SMS mode and integrated values were compared against standard curves prepared in the same manner as test samples.

The conditions of series [1]: cordycepin after one oral dose of HAD-B1 formula; cited from earlier work.
The conditions of series [2]: cited from earlier work.
The test system of a further series is CaCo2. The note with it: human, Caco-2; cited from earlier work.
For series [3] the following is noted: given as a pure compound; cited from earlier work.

The half-life is how long it takes for the measured level to halve.

With `Nc1ncnc2c1ncn2[C@@H]1O[C@H](CO)C[C@H]1O` [cordycepin, 3′-deoxyadenosine], the “cordycepin measured on the basal side” value with CaCo2 cells is “no detectable”. Also, in series [1], the half-life is 8.62 h and the “time to maximal concentration” value was 1.5 h. Besides, in series [2], the “experimental solubility in water” value was 1 mg/mL. Further, the CaCo2 permeability with CaCo2 is 1.1*10^−7 cm/s. Moreover, the oral bioavailability entry in series [3] is “extremely low”.
